Patent publication US9340493B2, “Hydroxamic acid derivatives useful as antibacterial agents” (Pfizer Inc., priority 2008, dated 2016)
≈ marks a conversion by molar mass, not a printed value.

What was measured:
[1] = biological target: T1, Pseudomonas aeruginosa LpxC enzyme (Pseudomonas aeruginosa, UniProt P47205); experiment: IC50 assay, LpxC enzyme from P. aeruginosa; format: biochemical; conditions: 0.5 nM enzyme, 25° C., pH 8.0, 20 min; ** = average of 2-8 assays
T1 construct: made in house; host or cells: E. coli
T1 sequence (P47205 1-303): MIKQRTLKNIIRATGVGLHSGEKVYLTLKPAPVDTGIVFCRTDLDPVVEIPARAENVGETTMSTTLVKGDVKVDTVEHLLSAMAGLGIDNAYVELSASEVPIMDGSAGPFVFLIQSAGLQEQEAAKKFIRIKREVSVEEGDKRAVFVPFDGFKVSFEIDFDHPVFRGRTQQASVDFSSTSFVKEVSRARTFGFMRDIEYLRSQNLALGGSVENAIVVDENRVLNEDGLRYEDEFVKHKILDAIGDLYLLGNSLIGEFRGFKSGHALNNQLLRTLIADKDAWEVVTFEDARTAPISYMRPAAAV
Procedure: IC50 assay, LpxC enzyme from P. aeruginosa: IC50 determination in the LpxC enzyme assay was carried out in a similar manner to that described by S. A. Hyland et al., J. Bacteriology 1997, 179, 2029-2037. [See also T. Kline et al., J. Medicinal Chemistry 2002, 45, 3112-3129.] Briefly, Pseudomonas aeruginosa LpxC enzyme (0.5 nM) purified from E. coli-overexpressing bacteria was incubated at 25° C. in a final volume of 25 ul containing 0.5 uM UDP-3-O—(R-3-hydroxydecanoyl)-N—[^3H-acetyl]glucosamine (B. D. Maxwell and J. C. Bronstein, J. Labeled Compounds and Radiopharmaceuticals 2005, 48, 1049-1054), 1 mg/ml BSA, and 50 mM sodium phosphate buffer, pH 8.0 in the presence and absence of inhibitor compound. At the end of 20 min, 90 ul of a pre-mixed 3% suspension of activated charcoal in 100 mM sodium acetate, pH 7.5, was added to stop the enzyme reaction. The contents of the well were transferred to a filter plate and filtered, and an aliquot of the filtrate was quantitated by liquid scintillation spectrometry. A no-enzyme control was subtracted in order to eliminate background counts.

P. aeruginosa PAO280 = experiment: MIC determination, P. aeruginosa PAO280; format: cell-based; conditions: Pseudomonas aeruginosa, PAO280, read-out: MIC (ug/mL) P. aeruginosa PAO280
Procedure: (§1) MIC determinations: The in vitro antibacterial activity of compounds described in the Examples was evaluated by minimum inhibitory concentration (MIC) testing according to Clinical and Laboratory Standards Institute (CLSI, formerly NCCLS) guidelines. See: Clinical and Laboratory Standards Institute. Methods for Dilution Antimicrobial Susceptibility Tests for Bacteria that Grow Aerobically; Approved Standard-Seventh Edition. CLSI document M7-A7 [ISBN 1-56238-587-9]. Clinical and Laboratory Standards Institute, 940 West Valley Road, Suite 1400, Wayne, Pa. 19087-1898 USA, 2006; also Clinical and Laboratory Standards Institute. Performance Standards for Antimicrobial Susceptibility Testing; Eighteenth Informational Supplement. CLSI document M100-S18 [ISBN1-56238-653-0]. Clinical and Laboratory Standards Institute.
(§2) The following bacterial strains were used:
Pseudomonas aeruginosa PA0280: lacks efflux pumps MexAB-oprM, MexXY and MexZ

P. aeruginosa UI-18 = experiment: MIC determination, P. aeruginosa UI-18; format: cell-based; conditions: Pseudomonas aeruginosa, UI18; wild-type; * = arithmetic mean of 2-6 MIC determinations; read-out: MIC (ug/mL) P. aeruginosa UI-18
Procedure: as §1, §2
P. aeruginosa UI-18: Wild-type;

[2] = tested on: Acinetobacter baumanii/haemolyticus; experiment: MIC determination, A. baumanii/haemolyticus; format: cell-based; conditions: Acinetobacter baumannii; multidrug-resistant clinical isolate; * = arithmetic mean of 2-6 MIC determinations; read-out: MIC (ug/mL) A. baumanii/haemolyticus
Procedure: as §1, §2
Acinetobacter baumanii/haemolyticus: Multidrug-resistant clinical isolate;

Enterobacter aerogenes = experiment: MIC determination, E. aerogenes; format: cell-based; conditions: Klebsiella aerogenes; quinolone-resistant, ESBL-expressing clinical isolate; * = arithmetic mean of 2-6 MIC determinations; read-out: MIC (ug/mL) E. aerogenes
Procedure: as §1, §2
Enterobacter aerogenes: Quinolone-resistant isolate, expresses extended-spectrum beta-lactamases (ESBL), clinical isolate;

Escherichia coli EC-1 = experiment: MIC determination, E. coli EC-1; format: cell-based; conditions: EC1, EC-1: VOGEL, * = arithmetic mean of 2-6 MIC determinations, read-out: MIC (ug/mL) E. coli EC-1
Procedure: as §1, §2
Escherichia coli EC-1: VOGEL;

Klebsiella pneumoniae = experiment: MIC determination, K. pneumoniae; format: cell-based; conditions: ciprofloxacin-resistant, ESBL-expressing clinical isolate, * = arithmetic mean of 2-6 MIC determinations, read-out: MIC (ug/mL) K. pneumoniae
Procedure: as §1, §2
Klebsiella pneumoniae: Ciprofloxacin-resistant isolate, expresses extended-spectrum beta-lactamases (ESBL), clinical isolate;

[3] = tested on: Staphylococcus aureus ATCC 29213; experiment: MIC determination, S. aureus ATCC 29213; format: cell-based; conditions: ATCC29213, CLSI quality control reference strain, * = arithmetic mean of 2-6 MIC determinations, read-out: MIC (ug/mL) S. aureus ATCC 29213
Procedure: as §1, §2
Staphylococcus aureus ATCC 29213: CLSI quality control reference strain; and […]

Compound | IC50 [1] [µM] | MIC (P. aeruginosa PAO280) [µg/mL] | MIC (P. aeruginosa UI-18) [µg/mL] | MIC [2] [µg/mL] | MIC (Enterobacter aerogenes) [µg/mL] | MIC (Escherichia coli EC-1) [µg/mL] | MIC (Klebsiella pneumoniae) [µg/mL] | MIC [3] [µg/mL]
CC(OCc1ccc(-c2ccccc2)cc1)(C(=O)NO)C1(O)CCC1 (stereo not drawn) [Example 48, 2-(biphenyl-4-ylmethoxy)-N-hydroxy-2-(1-hydroxycyclobutyl)propanamide] | 0.00623 | < 0.06 | 16 (≈ 46.9 µM) | > 64 | > 64 | > 64 | > 64 | > 64
CNC(=O)C(C)(OCc1ccc(-c2ccc(-c3cc(CO)no3)cc2)cc1)C(=O)NO (stereo not drawn) [Example 49, N-hydroxy-2-({4′-[3-(hydroxymethyl)isoxazol-5-yl]biphenyl-4-yl}methoxy)-N′,2-dimethylmalonamide] | 0.00175 | 0.045 (≈ 0.106 µM) | 2 (≈ 4.7 µM) | > 16 | > 16 | 8 (≈ 18.8 µM) | > 16 | > 16
CCc1ccc(-c2ccc(CO[C@](C)(C(=O)NO)[C@@H](O)c3cc(CO)on3)cc2)cc1 [Example 36, (2S,3S)-2-[(4′-ethylbiphenyl-4-yl)methoxy]-N,3-dihydroxy-4-[5-(hydroxymethyl)isoxazol-3-yl]-2-methylpropanamide] | 0.000244 | 0.03 (≈ 0.0703 µM) | 1 (≈ 2.34 µM) | 32 (≈ 75 µM) | 64 (≈ 150 µM) | 4 (≈ 9.38 µM) | 16 (≈ 37.5 µM) | 64 (≈ 150 µM)
C[C@@](OCc1ccc(-c2ccc(-c3cnco3)cc2)cc1)(C(=O)NO)[C@@H](O)c1ccc(CO)o1 [Example 46, (2S,3S)-N,3-dihydroxy-3-[5-(hydroxymethyl)-2-furyl]-2-methyl-2-{[4′-(1,3-oxazol-5-yl)biphenyl-4-yl]methoxy}propanamide] | 0.000366 | 0.25 (≈ 0.538 µM) | 4 (≈ 8.61 µM) | > 8 | > 8 | > 8 | > 8 | > 8
CC(OCc1ccc(-c2ccccc2)cc1)(C(=O)NO)C(=O)NCc1cn2ccccc2n1 (stereo not drawn) [Example 83, 2-(biphenyl-4-ylmethoxy)-N-hydroxy-N′-(imidazo[1,2-a]pyridin-2-ylmethyl)-2-methylmalonamide] | 0.00218 | 0.125 (≈ 0.281 µM) | 8 (≈ 18 µM) | 64 (≈ 144 µM) | > 64 | 16 (≈ 36 µM) | 64 (≈ 144 µM) | > 32
CC(OCc1ccc(-c2ccccc2)cc1)(C(=O)NO)C(=O)NCc1nnn[nH]1 (stereo not drawn) [Example 57, 2-(biphenyl-4-ylmethoxy)-N-hydroxy-2-methyl-N′-(1H-tetrazol-5-ylmethyl)malonamide] | 0.00134 | 4 (≈ 10.1 µM) | > 64 | > 64 | > 64 | > 64 | > 64 | > 64
C[C@@](OCc1ccc(-c2ccc(C(F)(F)F)cc2)cc1)(C(=O)NO)[C@@H](O)c1cc(CO)on1 [Example 42, (2S,3S)-N,3-dihydroxy-3-[5-(hydroxymethyl)isoxazol-3-yl]-2-methyl-2-{[4′-(trifluoromethyl)biphenyl-4-yl]methoxy}propanamide] | 0.000372 | < 0.06 | 2 (≈ 4.29 µM) | 32 (≈ 68.6 µM) | > 32 | 16 (≈ 34.3 µM) | > 32 | > 32
CCCc1ccc(-c2ccc(CO[C@](C)(C(=O)NO)[C@@H](O)c3cc(C)on3)cc2)cc1 [Example 30, (2S,3S)-N,3-dihydroxy-2-methyl-3-(5-methylisoxazol-3-yl)-2-[(4′-propylbiphenyl-4-yl)methoxy]propanamide] | 0.000762 | 1 (≈ 2.36 µM) | 4 (≈ 9.42 µM) | 2 (≈ 4.71 µM) | 16 (≈ 37.7 µM) | 2 (≈ 4.71 µM) | 4 (≈ 9.42 µM) | 32 (≈ 75.4 µM)
C[C@@](OCc1ccc(-c2ccccc2)cc1)(C(=O)NO)[C@@H](O)c1nccs1 [Example 20, (2S,3R)-2-(biphenyl-4-ylmethoxy)-N,3-dihydroxy-2-methyl-3-(1,3-thiazol-2-yl)propanamide] | 0.000726 | 1 (≈ 2.6 µM) | 16 (≈ 41.6 µM) | > 64 | > 64 | > 64 | > 64 | > 64
C[C@@](OCc1ccc(-c2ccccc2)cc1)(C(=O)NO)[C@@H](O)c1cc(S(C)(=O)=O)on1 [Example 43, (2S,3S)-2-(biphenyl-4-ylmethoxy)-N,3-dihydroxy-2-methyl-3-[5-(methylsulfonyl)isoxazol-3-yl]propanamide] | 0.000686 | 0.03 (≈ 0.0672 µM) | 2 (≈ 4.48 µM) | 64 (≈ 143 µM) | 64 (≈ 143 µM) | 4 (≈ 8.96 µM) | 16 (≈ 35.8 µM) | 64 (≈ 143 µM)
C[C@@](OCc1ccc(-c2ccccc2)cc1)(C(=O)NO)[C@@H](O)c1cc(CO)on1 [Example 34, (2S,3S)-2-(biphenyl-4-ylmethoxy)-N,3-dihydroxy-3-[5-(hydroxymethyl)isoxazol-3-yl]-2-methylpropanamide] | 0.000579 | 0.023 (≈ 0.0577 µM) | 1.25 (≈ 3.14 µM) | 64 (≈ 161 µM) | > 64 | 28 (≈ 70.3 µM) | 64 (≈ 161 µM) | > 64
Cc1cc([C@H](O)[C@](C)(OCc2ccc(-c3ccc(F)cc3)cc2)C(=O)NO)no1 [Example 38, (2S,3S)-2-[(4′-fluorobiphenyl-4-yl)methoxy]-N,3-dihydroxy-2-methyl-3-(5-methylisoxazol-3-yl)propanamide] | 0.000132 | 0.015 (≈ 0.0375 µM) | 1 (≈ 2.5 µM) | 4 (≈ 9.99 µM) | 64 (≈ 160 µM) | 2 (≈ 4.99 µM) | 8 (≈ 20 µM) | > 64
